The NIST ThermoML archive (doi:10.1016/j.jct.2016.11.017)
Numbers after ± are expanded uncertainties.

Columns and labels:
[1] = Crystal; DTA
[2] = Molar enthalpy of transition or fusion; settings: Crystal; DSC

| Normal melting temperature [1] [°C] | Molar enthalpy of transition or fusion [2] [kJ/mol] | Compound |
| --- | --- | --- |
| 201.2 ± 0.4 | 52.1 ± 1.4 | C[C@@H]1CC[C@@]2(OC1)O[C@H]1C[C@H]3[C@@H]4CC=C5C[C@@H](O)CC[C@]5(C)[C@H]4CC[C@]3(C)[C@H]1[C@@H]2C [Diosgenin] |
| 280.1 ± 0.4 | 42.7 ± 1.2 | C[C@]12CC[C@@H]3c4ccc(O)cc4CC[C@H]3[C@@H]1C[C@@H](O)[C@@H]2O [Estriol] |
